# Values joined by “and” are separate entries in the source; they are usually repeats but may differ in a detail not shown here. Identical values can stand only once. Like-named read-outs stand apart in the source and are kept apart here.
# Legend:
# rabies virus = assay type: in vivo, mice; details: all animals, day 21 after prime
# [1] = Zeta potential by Laser Doppler Microelectrophoresis; assay type: physicochemical
# tumor antigen Trp2 [2] = assay: Trp2 mRNA vaccination i.d.: IgG1/IgG2 endpoint titers (ELISA); details: C57/BL6 mice, day 0, 7, 14
# [3] = Particle size and PDI by dynamic light scattering (Malvern Zetasizer Nano); assay type: physicochemical
# tumor antigen Trp2 [4] = assay: Trp2 mRNA vaccination i.d.: T-cell response (TNFα+/IFNγ+ CD4+/CD8+); details: C57/BL6 mice, day 0, 7, 14
# [5] = system: malaria [NANP]7 peptide or C-terminus peptides; assay: Malaria CSP mRNA vaccination: ELISA endpoint titers; assay type: in vivo, mice; details: CSP mRNA i.m., day 35 post prime, Example 22
# From the text: The mRNA was further enzymatically capped using ScriptCap™ m7G Capping System (CellScript, Madison,WI., USA) according to the manufacturer's instructions and enzymatically polyadenylated using a commercial polyadenylation kit, resulting in SEQ ID NO:38.
# The GN01-LNP formulations were applied on days 0 and 21 intramuscularly (i.m.; musculus tibialis) with doses of RNA, formulations, and control groups as shown in Table Ex-20. A negative control group received vaccinations with an irrelevant RNA, formulated in GN01-LNPs. Serum samples were taken at day 21 and day 35 for ELISA.
# ELISA was performed using malaria [NANP]7 peptide or C-terminus peptides for coating. Coated plates were incubated using respective serum dilutions, and binding of specific antibodies to the respective malaria [NANP]7 or C-terminus peptide were detected using biotinylated isotype specific anti-mouse antibodies followed by streptavidin-HRP (horse radish peroxidase) with Amplex™ Red Reagent as substrate. Endpoint titers of antibodies (IgG1, IgG2a) directed against the malaria [NANP]7 or C-terminus peptide were measured by ELISA on day 21 and day 35 post prime. […]
# ELISA was performed using malaria [NANP]7 peptide for coating. […] Endpoint titers of antibodies (total IgG or IgG as indicated in the respective Figures) directed against the malaria [NANP]7 peptide were measured by ELISA on day 35 post prime.
structure (smiles),measurement,setting,value
"CCCCCCCCC(CCCCCC)COC(=O)CCCC(=O)OCCC1CCN(CCSSCCN2CCC(CCOC(=O)CCCC(=O)OCC(CCCCCC)CCCCCCCC)CC2)CC1 (centres unmarked) [Lipid C2, O1-[2-[1-[2-[2-[4-[2-[5-(2-hexyldecoxy)-5-oxo-pentanoyl]oxyethyl]-1-piperidyl]ethyldisulfanyl]ethyl]-4-piperidyl]ethyl] 05-(2-hexyldecyl) pentanedioate]",VNTs,rabies virus; single i.m. 5 μg RABV-G-mRNA,> 0.5 IU/ml
"CCN1CCC(CCOC(=O)C(CCSSCCC(NC(=O)CC(=O)Oc2c(C)c(C)c3c(c2C)CCC(C)(CCCC(C)CCCC(C)CCCC(C)C)O3)C(=O)OCCC2CCN(CC)CC2)NC(=O)CC(=O)Oc2c(C)c(C)c3c(c2C)CCC(C)(CCCC(C)CCCC(C)CCCC(C)C)O3)CC1 (centres unmarked) [Lipid C10, VitE-C4DE-CysPipSS]",zeta potential,[1],36.00 mV and 26.00 mV
same,IgG1 and IgG2 titers,tumor antigen Trp2 [2],stable IgG1 and IgG2 titers
same,PDI,[3],0.50 and 0.34
same,size,[3],103 nm and 67 nm
same,T-cell responses,tumor antigen Trp2 [4],low T-cell responses
"Cc1c(C)c2c(c(C)c1OC(=O)CCC(=O)OCCC1CCN(CCSCCN3CCC(CCOC(=O)CCC(=O)Oc4c(C)c(C)c5c(c4C)CC[C@@](C)(CCC[C@H](C)CCC[C@H](C)CCCC(C)C)O5)CC3)CC1)CC[C@@](C)(CCC[C@H](C)CCC[C@H](C)CCCC(C)C)O2 [Lipid C26, VitE-C4DE-Piperidine-Thioether]",IgG1 endpoint titers ([NANP]7 peptide),[5],very strong humoral immune responses
same,VNTs,rabies virus; single i.m. 1 μg RABV-G-mRNA,> 0.5 IU/ml
